{"source": "patent US20050226879A1", "about": "“Methods and compositions related to inhibiting nuclear envelope breakdown” (priority 2002, published 2005)", "type_in_all_cases": "biochemical, Xenopus laevis", "key": {"[1]": {"tested_on": "nuclear envelope breakdown", "experiment": "In vitro nuclear disassembly assay (nuclei assembled in Xenopus egg extract, cyclin B added)", "details": "for function in the nuclear disassembly assay (inhibition of nuclear envelope breakdown): synthetic peptides 44 μM, 15 minutes prior to sperm chromatin, assessed 75 and 95 minutes post cyclin, qualitative", "source_text": "To investigate whetherNup153 participates in nuclear envelope breakdown, recombinant fragments of Nup153 were examined to determine if they exert dominant negative effects on this process in vitro. Cell-free extracts derived from Xenopus eggs were used to form synthetic nuclei around sperm chromatin. This system offers the advantage of biochemical manipulation, while being well-established to robustly recapitulate both nuclear assembly as well as nuclear disassembly in response to mitotic signals (Murray, A. W. et al., Nature 339, 280-286 (1989)). Cycloheximide was included to prevent synthesis of cyclin, thereby arresting these extracts in interphase. After nuclei were assembled, a recombinant form of stabilized cyclin B was added to initiate mitotic events. […] Detection of import cargo provided the clearest visualization of whether a nuclear envelope was intact. […] A control GST fusion protein (FIG. 7B, lanes 1 and 5) likewise had no effect (FIG. 7C, panels g and h). […] In addition, nuclear import cargo was still concentrated in nuclei under mitotic conditions, confirming both the presence and integrity of the nuclear envelope (FIG. 7C, panel o). The effect of the Nup153 zinc finger was not due to selective stability of this fragment, as equivalent levels of recombinant protein were detected in each reaction by immunoblot following the last time point (FIG. 7B, lanes 9-11).\nInterphase Xenopus egg extracts were prepared using egg lysis buffer (ELB: 250 mM sucrose, 50 mM KCl, 2.5 mM MgCl2, 10 mM Hepes pH 7.4) supplemented with 1 mM dithiothreitol (DTT), 5 μg/ml cytochalasin B, aprotinin and leupeptin (10 μg/ml each), and 50 μg/ml cycloheximide (Powers, et al., In Current Protocols in Cell Biology (New York, John Wiley & Sons), pp. 11.10.11-11.11.24, (2001). Eggswere lysed by centrifugation for 15 min at 10,000 rpm. The cytoplasmic layer was collected as crude extract. For preparation of fiactionated egg extract, the crude extract was further centrifuged for 1.5 hr at 268,000 x g. The clarified supernatant was removed and further centrifuged for 1 hr at 259,000 x g to remove residual membranes. The crude extract was stored in liquid nitrogen; fractionated extract was frozen in liquid nitrogen and then stored at −80° C.\n(§1) Demembranated condensed sperm chromatin was isolated from Xenopus testes as described previously (Powers, et al., In Current Protocols in Cell Biology (New York, John Wiley & Sons), pp. 11.10.11-11.11.24, (2001). For the assembly of nuclei, an ATP-generating system was added to 28 μl of crude egg extract. Sperm chromatin was added and nuclei were allowed to assemble by incubation at room temperature. After assembly for 1 hr, import substrate (NLS-HSA-RITC, prepared as in (Powers, et al., In Current Protocols in Cell Biology (New York, John Wiley & Sons), pp. 11.10.11-11.11.24, (2001)) was added to the reaction and incubated for another 30 min to assess the presence of functional pores and membrane integrity. Recombinant cyclin B with a deletion that confers stability was then added to the nuclei to initiate mitotic events (Murray, A. W., et al., Nature 339, 280-286 (1989). The role of cyclin synthesis and degradation in the control of maturation promoting factor activity Nature 339, 280-286, 1989). Samples were taken from the reaction at the indicated time points to monitor by fluorescence microscopy using DHCC (Calbiochem, San Diego, Calif.) to monitor membranes and Hoechst 33258 (Calbiochem) to monitor DNA. To examine the effects of protein fragments and antibodies on nuclear disassembly, the reagent in question was incubated with crude extract for 15 minutes at room temperature prior to the addition of sperm chromatin and energy mix. As noted, for protein fragments either 3 μg (corresponding to final concentrations of 3.3 μM, 1.7 μM, and 1.5 μM for GST, GST-N, and GST-Z respectively) or 4 μg (corresponding to final concentrations of 4.4 μM and 2 μM for GST and GST-Z respectively) was added. […]"}, "[2]": {"tested_on": "nuclear envelope breakdown", "experiment": "In vitro nuclear disassembly assay (nuclei assembled in Xenopus egg extract, cyclin B added)", "details": "peptide added after nuclear assembly has taken place"}, "[3]": {"tested_on": "nuclear assembly and NLS-mediated import", "experiment": "Nuclear assembly and NLS import in egg extract (interphase)", "details": "ARF peptide 22 μM present", "experimental": "as §1, with “DNA.” for “DNA. To examine the effects of protein fragments and antibodies on nuclear disassembly, the reagent in question was incubated with crude extract for 15 minutes at room temperature prior to the addition of sperm chromatin and energy mix. As noted, for protein fragments either 3 μg (corresponding to final concentrations of 3.3 μM, 1.7 μM, and 1.5 μM for GST, GST-N, and GST-Z respectively) or 4 μg (corresponding to final concentrations of 4.4 μM and 2 μM for GST and GST-Z respectively) was added.”"}}, "note": "Entries after “also recorded” stand apart in the source; their conditions may differ."}
{"molecule": "C[C@H]1CCC/C=C/[C@@H]2C[C@H](O)C[C@H]2[C@H](O)/C=C/C(=O)O1", "note": "[Brefeldin A]", "values": [{"measurement": "effect on nuclear envelope breakdown", "setting": "[1]; Brefeldin A 0.6 μg/ml final, added 15 min prior to assembly", "result": "interferes with nuclear envelope breakdown; also recorded: very clear interference of nuclear envelope breakdown"}]}
{"molecule": "CTHPFTHECGGGS [ZNFPHD1]", "values": [{"measurement": "function in the nuclear disassembly assay", "setting": "[2]", "result": "not inhibitory"}, {"measurement": "inhibition of nuclear envelope breakdown", "setting": "[1]; synthetic form as well as displayed form", "result": "capable of inhibiting nuclear envelope breakdown"}, {"measurement": "function in the nuclear disassembly assay (inhibition of nuclear envelope breakdown)", "setting": "[1]", "result": "inhibitory"}]}
{"molecule": "CEQTYRVCGGGS (CEQTLYRVCGGGS)", "values": [{"measurement": "function in the nuclear disassembly assay (inhibition of nuclear envelope breakdown)", "setting": "[1]", "result": "not inhibitory"}]}
{"molecule": "CGEHVRPSCGGGS", "values": [{"measurement": "function in the nuclear disassembly assay (inhibition of nuclear envelope breakdown)", "setting": "[1]", "result": "did not have activity"}]}
{"molecule": "(C)ESGELKPEDDVTVGPAQK (CESGELKPEDDVTVGPAQK; N-terminal cysteine) [immunogenic peptide]", "values": [{"measurement": "protective effect of anti-β-COP antibodies on inclusion of the peptide", "setting": "[1]; anti-β-COP 5 μg incubated with β-COP peptide 5 μg for 15 min before addition", "result": "blocked"}]}
{"molecule": "GNMFANLFKGLFGKKE [ARF peptide]", "values": [{"measurement": "nuclei remaining intact", "setting": "[1]; ARF peptide 22 μM, 75 minutes after cyclin addition", "result": 90, "unit": "%"}, {"measurement": "nuclear assembly", "setting": "[3]", "result": "proceeded"}]}
{"molecule": "EKKGFLGKFLNAF MNG (EKKGFLGKFLNAFMNG) [ARF 17-2]", "values": [{"measurement": "effect on nuclear disassembly", "setting": "[1]; ARF peptides 22 μM, 75 minutes after cyclin addition", "result": "no significant affect"}]}
{"molecule": "CNNTRSPYCGGGS", "values": [{"measurement": "function in the nuclear disassembly assay (inhibition of nuclear envelope breakdown)", "setting": "[1]", "result": "not inhibitory"}]}
